Data from patent US20230302131A1, “MPC INHIBITION FOR PRODUCING T-CELLS WITH A MEMORY PHENOTYPE” (UNIVERSITÉ DE LAUSANNE, priority 2020, published 2023).

What was measured:
[1] = system: histone 3 (H3K4-3Me, H3K27-Ac) in CD8 T cells; assay: Western blot of histone 3 modifications; format: cell-based, mouse
Excerpt: Mechanistically, it was hypothesized by the inventors that epigenetic processes might underlie the observed long-term memory phenotype and anti-tumor activity upon metabolic intervention with MPCi. […] Since acetyl-CoA is the acetyl donor for the acetylation of proteins, amongst which also histones, histone post-translational modifications were examined that are known to make chromatin accessible to transcription factors, a characteristic of memory T cells. […] These are marks known to open chromatin and make it accessible for transcription factor docking. […] Amongst those were Sell, Tcf7 and Ccr7, thereby correlating accessible chromatin with increased mRNA copies (FIG. 3E and see above).
Cells were lysed in RIPA lysis buffer (50 mM TrisHCl pH8, 150 mM NaCl, 1% Triton X 100, 0.5% Sodium deoxycholate, 0.1% SDS) and Halt protease/phosphatase cocktail inhibitors (Roche) and denatured by heat. Proteins were quantified by BCA protein assay kit (Thermo Scientific). Proteins were separated on 12.5% polyacrylamide gradient gels and transferred onto nitrocellulose membranes 0.2 μm (Biorad). Non-specific binding sites were blocked in milk 5% and membranes were incubated with primary antibodies (Cell Signaling). […]

[2] = system: B16 melanoma tumors expressing HER2; assay: HER2-CAR T cell production with UK5099 and adoptive transfer into mice with B16 tumors expressing HER2; format: in vivo, mouse
Procedure: For each retroviral preparation, 8×10^6 Phoenix ECO cells (ATCC, CRL-3214) were plated in a T150 tissue culture flask in RPMI medium supplemented with 10% FCS, 10 mM HEPES and 50 U/ml Penicillin-Streptomycin. On the next day, cells were transfected with 21 μg of the retroviral construct with Turbofect transfection reagent (Thermo Fischer Scientific), according to the manufacturer protocol. The medium was changed daily and collected at 48 h and 72 h post transfection. 48 h and 72 h virus supernatants were pooled and sedimented at 22000rcf for 2 h at 4° C. Finally, retrovirus pellets were resuspended in 2 ml of full RPMI medium and divided in 8 aliquots of 250 μl each, which were snap-frozen on dry ice and stored at −80° C.
Spleens from wild type CD45.1.2 mice were smashed on a 70 µm cell strainer. CD8 T cells were purified using the EasySep™ Mouse CD8+ T Cell Isolation Kit (StemCell) according to the manufacturer protocol. 0.5×10^6 CD8 T cells were plated in 48 well plates in 0.5 ml of complete RPMI 1640 medium supplemented with 10% FCS, antibiotics and 50 IU/ml of recombinant human IL-2, and exposed to either DMSO or 20 μM UK5099. Mouse T-cells were activated with Activator CD3/CD28 Dynabeads (Gibco) at a ratio of 2 beads per cell. Retroviral infection was conducted at 37° C. for 24 h. Untreated 48-well plates were coated for 24 h with […] of recombinant human fibronectin (Takara Clontech) at 4° C., followed by PBS 2% BSA for 30 min at RT and finally washed with PBS. One aliquot of concentrated retroviruses was plated in each fibronectin-coated 48-well plates and centrifuged for 90 min at 2000rcf and 32° C. Then, 0.5×10^6 of 24 h-activated CD8 T cells were added on top of the viruses and spun for 10 min at 400rcf and 32° C. On day 3, the medium was replaced with 10 IU/ml recombinant human IL-2, 10 ng/ml recombinant human IL-7 and 10 ng/ml recombinant human IL-15, containing either DMSO or 20 μM UK5099. Cells were then split every second day.
CD45.2 C57BL/6 mice were engrafted subcutaneously with 4×10^5 B16F10 tumors modified to express HER2. Six days later, mice were lymphodepleted with 100 mg/kg cyclophosphamide (Sigma Aldrich, C7397) injected i.p., and homogeneous groups were constituted with regard to tumor volume. T cells (5×10^6) were adoptively transferred i.v. on the next day. Tumor volumes were measured three times a week with a caliper and calculated using the formula: V=π×[d2×D]/6, where d is the minor tumor axis and D is the major tumor axis. Tumors were collected and separated from skin. Single cell suspensions were obtained with the Mouse Tumor Dissociation Kit (Miltenyi, 130-096-730) according to the manufacturer protocol. Spleen and draining lymph node were smashed on a 70 µm cell strainer. Single cell suspensions were stained with antibodies before flow cytometry analysis.
Polyclonal CD8 T cells from wild type mice were activated in the presence of DMSO or 20 μM UK5099 and then retrovirally transduced with a control blue fluorescent protein-expressing retroviral construct (BFP) or with HER2-CAR (FIG. 6A). […] More UK5099-HER2CAR T cells were engrafted in the tumor-draining lymph nodes, while CAR T cell numbers in the spleen were similar (FIGS. 6C and 6D). […] As in the spleen, more tumor-infiltrating UK5099-treated CAR T cells expressed TCF1 (FIG. 6G). […] Finally, fewer UK5099-treated CAR T cells were expressing the inhibitory molecules PD1 and TIM3, indicating a less exhausted phenotype (FIG. 6J).

[3] = 20 μM during production, vs DMSO
[4] = co-expression of TCF1 with PD1, vs DMSO

SMILES: N#CC(=Cc1cn(-c2ccccc2)c2ccccc12)C(=O)O [UK5099, 2-cyano-3-(1-phenyl-1H-indol-3-yl)-2-propenoic acid]
- acetylation of lysine 27 on histone 3 (H3K27-Ac) [1]: increase
- trimethylation of lysine 4 on histone 3 (H3K4-3Me) [1]: increase
- CAR T cell numbers in the spleen [2, 3]: similar
- HER2CAR T cells engrafted in the tumor-draining lymph nodes [2, 3]: More
- percentage of splenic HER2CAR T cells expressing TCF1 [2, 3]: higher percentage
- tumor growth after HER2CAR T cell ACT ([2]; CAR T cells produced with 20 μM UK5099, 5×10^6 T cells i.v.): significantly suppress tumor growth
- progenitor exhausted T cells (TCF1-positive) among CAR T cells in the tumor [2, 4]: more
- terminally differentiated exhausted T cells (TCF1-negative) among CAR T cells in the tumor [2, 4]: less
- CAR T cells expressing the inhibitory molecules PD1 and TIM3 ([2]; in the tumor, vs DMSO): fewer
- CAR T cells in tumors ([2]; per mg of tumor, vs DMSO): significantly more
- tumor-infiltrating CAR T cells expressing TCF1 ([2]; vs DMSO): more
